# pIC50: −log10 of the molar value.
# Assays:
# [1] = Displacement of Biocillin FL from Streptococcus pneumoniae 3676 PBP3
# [2] = target: T1, Penicillin-binding protein 2x (Streptococcus pneumoniae serotype 4 (strain ATCC BAA-334 / TIGR4), UniProt P14677); test: Displacement of Biocillin FL from Streptococcus pneumoniae 3676 PBP2X
# T1 sequence (P14677 whole entry): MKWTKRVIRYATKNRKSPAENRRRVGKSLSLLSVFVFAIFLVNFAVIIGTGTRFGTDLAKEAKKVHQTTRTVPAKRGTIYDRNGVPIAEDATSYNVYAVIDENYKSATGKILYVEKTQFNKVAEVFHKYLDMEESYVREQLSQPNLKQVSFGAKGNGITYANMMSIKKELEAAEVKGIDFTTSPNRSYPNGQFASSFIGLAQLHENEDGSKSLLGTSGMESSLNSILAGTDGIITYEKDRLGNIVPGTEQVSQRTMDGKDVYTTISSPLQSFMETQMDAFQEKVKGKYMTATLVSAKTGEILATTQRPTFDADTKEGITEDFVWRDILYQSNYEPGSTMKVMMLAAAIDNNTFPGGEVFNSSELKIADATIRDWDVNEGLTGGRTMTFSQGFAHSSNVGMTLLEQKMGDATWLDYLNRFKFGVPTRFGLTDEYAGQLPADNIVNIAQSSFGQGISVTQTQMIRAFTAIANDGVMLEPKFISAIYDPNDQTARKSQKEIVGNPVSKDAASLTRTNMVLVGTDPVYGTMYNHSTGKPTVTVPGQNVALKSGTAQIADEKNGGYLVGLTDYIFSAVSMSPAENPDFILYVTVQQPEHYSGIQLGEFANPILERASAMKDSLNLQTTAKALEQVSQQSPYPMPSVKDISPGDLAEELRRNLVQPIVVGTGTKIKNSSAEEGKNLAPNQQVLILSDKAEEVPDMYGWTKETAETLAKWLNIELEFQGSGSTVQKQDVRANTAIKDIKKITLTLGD
# Streptococcus pneumoniae [3] = test: Antimicrobial activity against penicillin-intermediate Streptococcus pneumoniae 3243 by CLSI method; assay type: functional
# [4] = Displacement of Biocillin FL from Streptococcus pneumoniae 3413 PBP3
# Streptococcus pneumoniae [5] = test: Antimicrobial activity against penicillin-resistant Streptococcus pneumoniae 24 by CLSI method; assay type: functional
# [6] = target: T2, Penicillin-binding protein 2B (Streptococcus pneumoniae serotype 4 (strain ATCC BAA-334 / TIGR4), UniProt P0A3M5); test: Displacement of Biocillin FL from Streptococcus pneumoniae 24 PBP2B
# T2 sequence (P0A3M5 whole entry): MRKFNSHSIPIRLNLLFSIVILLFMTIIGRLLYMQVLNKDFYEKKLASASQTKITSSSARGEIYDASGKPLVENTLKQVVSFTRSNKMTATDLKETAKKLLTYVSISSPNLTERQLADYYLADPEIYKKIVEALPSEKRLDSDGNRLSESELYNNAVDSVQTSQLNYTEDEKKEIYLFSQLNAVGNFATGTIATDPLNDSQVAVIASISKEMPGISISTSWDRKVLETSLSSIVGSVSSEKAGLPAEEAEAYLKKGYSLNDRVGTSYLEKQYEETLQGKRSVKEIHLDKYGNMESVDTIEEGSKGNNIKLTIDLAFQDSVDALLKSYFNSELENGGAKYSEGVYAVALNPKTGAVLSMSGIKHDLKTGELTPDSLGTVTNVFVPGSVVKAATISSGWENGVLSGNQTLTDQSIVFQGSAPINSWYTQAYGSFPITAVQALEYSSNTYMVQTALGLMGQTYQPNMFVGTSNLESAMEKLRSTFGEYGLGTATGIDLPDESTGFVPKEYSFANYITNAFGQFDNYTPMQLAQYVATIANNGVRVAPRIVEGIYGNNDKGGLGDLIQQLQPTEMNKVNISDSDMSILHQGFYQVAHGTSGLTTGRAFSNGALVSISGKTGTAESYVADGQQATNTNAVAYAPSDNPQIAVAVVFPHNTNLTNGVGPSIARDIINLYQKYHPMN
# [7] = target: T1, Penicillin-binding protein 2x; test: Displacement of Biocillin FL from Streptococcus pneumoniae 2527 PBP2X
# [8] = Displacement of Biocillin FL from Streptococcus pneumoniae 1077 PBP3
# [9] = Displacement of Biocillin FL from Streptococcus pneumoniae 24 PBP3
# [10] = target: T2, Penicillin-binding protein 2B; test: Displacement of Biocillin FL from Streptococcus pneumoniae 3676 PBP2B
# [11] = target: T2, Penicillin-binding protein 2B; test: Displacement of Biocillin FL from Streptococcus pneumoniae 3413 PBP2B
# Streptococcus pneumoniae [12] = test: Antimicrobial activity against penicillin-intermediate Streptococcus pneumoniae 3676 by CLSI method; assay type: functional
# [13] = target: T2, Penicillin-binding protein 2B; test: Displacement of Biocillin FL from Streptococcus pneumoniae 3665 PBP2B
# [14] = Displacement of Biocillin FL from Streptococcus pneumoniae 2527 PBP1B
# [15] = Displacement of Biocillin FL from Streptococcus pneumoniae 3243 PBP3
# [16] = Displacement of Biocillin FL from Streptococcus pneumoniae 24 PBP2A
# [17] = Displacement of Biocillin FL from Streptococcus pneumoniae 3676 PBP1B
# [18] = target: T3, Penicillin-binding protein 1A (Streptococcus pneumoniae serotype 4 (strain ATCC BAA-334 / TIGR4), UniProt Q04707); test: Displacement of Biocillin FL from Streptococcus pneumoniae 1076 PBP1A
# T3 sequence (Q04707 whole entry): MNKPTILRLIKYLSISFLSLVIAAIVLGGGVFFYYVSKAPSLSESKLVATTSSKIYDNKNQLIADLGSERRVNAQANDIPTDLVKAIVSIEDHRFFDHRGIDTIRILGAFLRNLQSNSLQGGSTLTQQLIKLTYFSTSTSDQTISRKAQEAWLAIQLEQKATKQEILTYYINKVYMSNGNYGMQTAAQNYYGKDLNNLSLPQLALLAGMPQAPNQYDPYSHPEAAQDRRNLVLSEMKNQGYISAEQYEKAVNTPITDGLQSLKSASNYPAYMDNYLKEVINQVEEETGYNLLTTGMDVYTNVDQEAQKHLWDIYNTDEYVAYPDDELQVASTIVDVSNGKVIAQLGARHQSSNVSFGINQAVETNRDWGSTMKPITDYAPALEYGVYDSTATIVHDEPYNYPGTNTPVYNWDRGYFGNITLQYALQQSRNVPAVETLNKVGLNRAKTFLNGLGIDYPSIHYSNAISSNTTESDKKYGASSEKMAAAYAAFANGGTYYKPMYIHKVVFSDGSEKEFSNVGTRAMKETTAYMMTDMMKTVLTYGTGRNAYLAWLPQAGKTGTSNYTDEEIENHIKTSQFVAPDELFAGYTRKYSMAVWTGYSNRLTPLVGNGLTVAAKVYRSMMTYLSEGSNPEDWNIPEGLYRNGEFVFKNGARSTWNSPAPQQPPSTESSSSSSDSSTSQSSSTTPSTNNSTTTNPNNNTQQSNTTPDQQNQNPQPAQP
# [19] = Displacement of Biocillin FL from Streptococcus pneumoniae 1076 PBP1B
# [20] = Displacement of Biocillin FL from Streptococcus pneumoniae 3009 PBP3
# [21] = target: T2, Penicillin-binding protein 2B; test: Displacement of Biocillin FL from Streptococcus pneumoniae 2527 PBP2B
SMILES,IC50 [1] [mg/L],pIC50 [2],MIC (Streptococcus pneumoniae [3]) [mg/L],IC50 [4] [mg/L],MIC (Streptococcus pneumoniae [5]) [mg/L],pIC50 [6],pIC50 [7],IC50 [8] [mg/L],IC50 [9] [mg/L],pIC50 [10],pIC50 [11],MIC (Streptococcus pneumoniae [12]) [mg/L],pIC50 [13],IC50 [14] [mg/L],IC50 [15] [mg/L],IC50 [16] [mg/L],IC50 [17] [mg/L],pIC50 [18],IC50 [19] [mg/L],IC50 [20] [mg/L],also measured
CC1(C)S[C@@H]2[C@H](NC(=O)[C@H](N)c3ccc(O)cc3)C(=O)N2[C@H]1C(=O)O [AMOXICILLIN],0.019,6.93,0.06,0.029,2,6.32,7.96,0.022,0.049,6.40,6.35,0.03,6.22,0.029,0.006,0.077,0.116,6.92,0.068,0.047,pIC50 [21]: 7.04
CO/N=C(\C(=O)N[C@@H]1C(=O)N2C(C(=O)O)=C(COC(N)=O)CS[C@H]12)c1ccco1 [CEFUROXIME],0.048,7.33,0.25,0.004,2,7.05,8.15,0.071,0.002,5.95,8.93,0.125,4.46,0.028,0.023,0.016,0.038,8.03,0.008,0.024,pIC50 [21]: 5.21
C[C@@H](O)[C@H]1C(=O)N2C(C(=O)O)=C([C@H]3CCCO3)S[C@H]12 [FAROPENEM],0.009,7.22,0.125,0.003,1,6.94,6.94,0.006,0.015,6.82,6.30,0.125,6.78,0.002,0.004,0.023,0.005,7.28,0.002,0.006,pIC50 [21]: 7.46
C[C@@H](O)[C@H]1C(=O)N2C(C(=O)O)=C(SCCNC=N)C[C@H]12 [IMIPENEM ANHYDROUS],0.188,6.89,0.016,0.195,0.25,6.36,7.22,0.219,0.2,5.88,5.54,0.016,5.66,0.023,0.095,0.352,0.182,6.52,0.031,0.039,pIC50 [21]: 6.68
CC1(C)S[C@@H]2[C@H](NC(=O)Cc3ccccc3)C(=O)N2[C@H]1C(=O)O [PENICILLIN G],0.007,7.08,0.25,0.01,4,6.48,7.57,0.01,0.004,6.10,6.27,0.25,6.33,0.009,0.007,0.133,0.021,7.32,0.007,0.001,pIC50 [21]: 6.54

# — ChEMBL document CHEMBL1649182, “Binding of faropenem and other beta-lactam agents to penicillin-binding proteins of pneumococci with various beta-lactam susceptibilities” (Antimicrob Agents Chemother, 2009)
